The source of these data is ChEMBL document CHEMBL6083291, “Discovery of Thiochroman Derivatives as Potent, Oral Selective Estrogen Receptor Degraders and Antagonists for the Treatment of Endocrine-Resistant Breast Cancer” (J Med Chem, 2024).

For data set [1], the system named is MCF7. The data set can be described thus: Antiproliferative activity against human MCF7 cells assessed as reduction in cell viability incubated for 6 days by CellTiter-Glo reagent based luminescence analysis. To be noted: mcf7.
Another data set concerns T47D. Briefly: Antiproliferative activity against human T47D cells assessed as reduction in cell viability.
Another data set deals with CAMA-1. The data set can be described thus: Antiproliferative activity against human CAMA-1 cells assessed as reduction in cell viability.
The test system of the next data set is BT-474. Briefly: Antiproliferative activity against human BT-474 cells assessed as reduction in cell viability.
The next data set relates to MDA-MB-361. Briefly: Antiproliferative activity against human MDA-MB-361 cells assessed as reduction in cell viability.
Data set [2] can be described thus: Antiproliferative activity against endocrine-resistant human MCF7 Tam1 cells assessed as inhibition of cell growth. The note with it: Tamoxifen-resistant MCF7.
Data set [3] relates to MCF7. The data set can be described thus: Antiproliferative activity against human MCF7 cells harboring ER-alpha Y537S mutant assessed as inhibition of cell growth.
The nature of data set [4]: Half life in Sprague-Dawley rat plasma at 2 mg/kg, iv measured for 24 hrs by LC-MS/MS analysis. It is filed as ADME, organism-based.
Data set [5] can be described thus: C0 in Sprague-Dawley rat plasma at 2 mg/kg, iv by LC-MS/MS analysis. The class given is ADME, organism-based.
Data set [6] can be described thus: AUC(0 to t) in Sprague-Dawley rat plasma at 2 mg/kg, iv measured for 24 hrs by LC-MS/MS analysis. The class given is ADME, organism-based.
Data set [7] in a line: MRT in Sprague-Dawley rat plasma at 2 mg/kg, iv measured for 24 hrs by LC-MS/MS analysis. It is filed as ADME, organism-based.
Data set [8] is described as follows: Clearance in Sprague-Dawley rat plasma at 2 mg/kg, iv measured for 24 hrs by LC-MS/MS analysis. The class given is ADME, organism-based.
Data set [9] in a line: Volume of distribution at steady state in Sprague-Dawley rat plasma at 2 mg/kg, iv measured for 24 hrs by LC-MS/MS analysis. The class given is ADME, organism-based. To be noted: read-out: Vdss.
Data set [10] is described as follows: Half life in Sprague-Dawley rat plasma at 10 mg/kg, po measured for 24 hrs by LC-MS/MS analysis. It is filed as ADME, organism-based.
Data set [11] is described as follows: Tmax in Sprague-Dawley rat plasma at 10 mg/kg, po measured for 24 hrs by LC-MS/MS analysis. It is filed as ADME, organism-based.
Data set [12] is described as follows: Cmax in Sprague-Dawley rat plasma at 10 mg/kg, po measured for 24 hrs by LC-MS/MS analysis. The class given is ADME, organism-based.
Data set [13] can be described thus: AUC(0 to t) in Sprague-Dawley rat plasma at 10 mg/kg, po measured for 24 hrs by LC-MS/MS analysis. The class given is ADME, organism-based.
A short description of data set [14]: MRT in Sprague-Dawley rat plasma at 10 mg/kg, po measured for 24 hrs by LC-MS/MS analysis. It is filed as ADME, organism-based.
The nature of data set [15]: Oral bioavailability in Sprague-Dawley rat at 10 mg/kg measured for 24 hrs by LC-MS/MS analysis. The class given is ADME, organism-based. To be noted: in vivo.
Data set [16] is described as follows: Half life in Sprague-Dawley rat plasma at 20 mg/kg, po measured for 10 hrs by LC-MS/MS analysis. It is filed as ADME, organism-based.
The nature of data set [17]: Tmax in Sprague-Dawley rat plasma at 20 mg/kg, po measured for 10 hrs by LC-MS/MS analysis. The class given is ADME, organism-based.
Data set [18] is described as follows: Cmax in Sprague-Dawley rat plasma at 20 mg/kg, po measured for 10 hrs by LC-MS/MS analysis. It is filed as ADME, organism-based.
A short description of data set [19]: AUC(0 to t) in Sprague-Dawley rat plasma at 20 mg/kg, po measured for 10 hrs by LC-MS/MS analysis. The class given is ADME, organism-based.
Data set [20] is described as follows: MRT in Sprague-Dawley rat plasma at 20 mg/kg, po measured for 10 hrs by LC-MS/MS analysis. The class given is ADME, organism-based.
A short description of data set [21]: Half life in Sprague-Dawley rat brain at 20 mg/kg, po measured for 10 hrs by LC-MS/MS analysis. It is filed as ADME, organism-based.
Data set [22] in a line: Tmax in Sprague-Dawley rat brain at 20 mg/kg, po measured for 10 hrs by LC-MS/MS analysis. The class given is ADME, organism-based.
Data set [23] in a line: Cmax in Sprague-Dawley rat brain at 20 mg/kg, po measured for 10 hrs by LC-MS/MS analysis. The class given is ADME, organism-based.
A short description of data set [24]: AUC(0 to t) in Sprague-Dawley rat brain at 20 mg/kg, po measured for 10 hrs by LC-MS/MS analysis. It is filed as ADME, organism-based. The note with it: in vivo.
Data set [25] in a line: MRT in Sprague-Dawley rat brain at 20 mg/kg, po measured for 10 hrs by LC-MS/MS analysis. It is filed as ADME, organism-based.
Data set [26] is described as follows: Ratio of drug level in brain to plasma in Sprague-Dawley rat at 20 mg/kg, po measured for 10 hrs by LC-MS/MS analysis. The class given is ADME, organism-based. The note with it: brain and plasma.
The nature of data set [27]: Toxicity in Sprague-Dawley rat assessed as thickened endometrium in uterus at 10 mg/kg, po qd for 3 days by Hematoxylin-Eosin staining based analysis. The class given is organism-based. To be noted: in vivo, 72 h, time 3 day.
Data set [28] in a line: Toxicity against Balb/c mouse xenografted with human MCF7 Tam1 cells assessed as changes in body weight at 10 to 30 mg/kg, po qd for 21 days. It is filed as organism-based. The note with it: in vivo, 504 h, dose 10-30 mg/kg, time 21 day. (In general: Xenograft models place foreign cells or tissue in a host animal.)
A short description of data set [29]: animal or person. The note with it: Homo sapiens, Tamoxifen-resistant MCF7, po, 504 h, read-out: TGI.
The nature of data set [30]: animal or person. The note with it: Homo sapiens, Tamoxifen-resistant MCF7, po, 504 h, read-out: TGI. This is another data set of the same source.
Data set [31] is described as follows: Estrogenic like activity in Sprague-Dawley rat assessed as increase in ratio of uterine wet weight to body weight at 60 mg/kg, po qd for 3 days relative to control. The class given is toxicity, organism-based. To be noted: in vivo, 72 h, time 3 day.
The nature of data set [32]: Toxicity in Sprague-Dawley rat assessed as thickened endometrium in uterus at 60 mg/kg, po qd for 3 days by Hematoxylin-Eosin staining based analysis. The class given is organism-based. The note with it: in vivo, 72 h, time 3 day.
A short description of data set [33]: Ratio of drug level in brain to plasma in mouse. It is filed as ADME. The note with it: brain and plasma.

As a reminder, the IC50 is the concentration that gives 50% inhibition. One may read the half-life as how long it takes for the measured level to halve. As usually defined, the AUC(0-t) is the area under the concentration-time curve up to a stated or last time point. Low values mean low exposure, high ones high exposure. A word on the MRT: it is the average time that molecules of a dose stay in the body. The clearance is the volume of plasma or blood freed of the substance per unit of time. One may read the Tmax as the time at which the peak concentration occurs. Broadly, the Cmax is the maximum level reached in the sampled fluid or tissue. What is called bioavailability is dose-corrected exposure relative to a reference, in per cent. Read a high bioavailability as much systemic uptake. By Kp is commonly meant tissue or fluid exposure divided by exposure in the circulation. Take `COc1cc(F)ccc1[C@H]1CSc2cc(O)ccc2[C@H]1c1ccc(OCCN2CC(CF)C2)cc1`: the IC50 in the data set with MCF7 [1] was 0.25 nM; in the data set with T47D it was 4 nM; in the data set with CAMA-1, 4 nM; in the data set on BT-474 it was 4 nM; with MDA-MB-361, roughly 15 nM; in data set [2] it was 5.37 nM. Further, in the data set with MCF7 [3], the IC50 is 10.6 nM. Also, the half-life is 240 min in data set [4], 534 min in data set [10], 336 min in data set [16] and 420 min in [21]. Further, the C0 in [5] came to 741 ng/mL. The AUC(0-t) at 24 h in data set [6] is 1370 ng·h/mL; in data set [13], 1360 ng·h/mL. Also, the MRT in [7] was 5.24 h; in [14], 13.4 h; in [20] it was 10.6 h; in data set [25] it was 12.4 h. For the same compound, the clearance in data set [8] was 23.3 mL/min/kg. Besides, the Vd in [9] worked out at 6.6 L/kg. Besides, the values for the time of peak concentration (Tmax) in data set [11], in [17] and in data set [22] were 3 h, 6 h and 6 h, respectively. The Cmax amounted to 198 ng/mL in data set [12], 509 ng/mL in data set [18] and 1470 ng/g in [23]. This compound also gave a bioavailability in [15] of 19.9%. Besides, in data set [19], the AUC(0-t) at 10 h was 3660 ng·h/mL. Besides, in [24], the AUCt worked out at 11170 ng·h/g. The concentration ratio (Kp) at 10 h in data set [26] was 3.05. Further, the Activity result in [27] and in data set [28] was “Non-toxic” each time. Further, in “animal or person [29]”, the inhibition in vivo at 10 mg/kg was 26.8%. The inhibition in vivo at 30 mg/kg in the data set “animal or person [30]” is 64.5%.

For the compound `CC/C(=C(\c1ccc(O)cc1)c1ccc(OCCN(C)C)cc1)c1ccccc1` [AFIMOXIFENE], the “fold change (FC)” value in data set [31] was found to be 2. Moreover, in data set [32], the Activity entry was “Toxic”.

`CCNCCc1ccc(CN(CC)c2cc(OC)ccc2[C@@H]2CCc3cc(O)ccc3C2)cc1` [ELACESTRANT]: the Kp in data set [33] amounted to 0.36.
